According to PMC8308911, “Pharmacokinetic Study of Anti-osteoarthritic Compounds of a Standardized Fraction from Sphaeralcea Angustifolia” (Pharmaceuticals, 2021):
Read-outs that look alike come from different tables or passages of the source. Values belong to the compound of their own block, whether it stands above or below them.

What was measured:
[1] = Stability of the active compounds in mouse plasma under handling and storage conditions; details: mice plasma
Protocol: (§1) The investigation presented here expected manipulation conditions during all of the sample storage and process periods, which included the stability data from the freeze/defrost, bench-top, autosampler, and long-term stability tests. For all stability studies, fresh QC samples were evaluated by using a freshly prepared standard curve for the measurements. The analyzed conditions were 0, 8, and 24 h at room temperature, 8 h at 4 °C, and 30 days at −70 °C. The concentrations obtained from all of the stability studies were compared with the fresh QC samples, and the percentage of concentration deviation was calculated.

[2] = mouse
Protocol: as §1

[3] = Autosampler (4 °C, 8 h), nominal 2.5 μg/mL
[4] = Autosampler (4 °C, 8 h), nominal 5 μg/mL
[5] = Autosampler (4 °C, 8 h), nominal 10 μg/mL
[6] = Long-term (−70 °C, 1 month), nominal 2.5 μg/mL
[7] = Long-term (−70 °C, 1 month), nominal 5 μg/mL
[8] = Long-term (−70 °C, 1 month), nominal 10 μg/mL
[9] = room temperature, 0 h, nominal 2.5 μg/mL
[10] = room temperature, 0 h, nominal 5 μg/mL
[11] = room temperature, 0 h, nominal 10 μg/mL
[12] = room temperature, 8 h, nominal 2.5 μg/mL
[13] = room temperature, 8 h, nominal 5 μg/mL
[14] = room temperature, 8 h, nominal 10 μg/mL
[15] = room temperature, 24 h, nominal 2.5 μg/mL
[16] = room temperature, 24 h, nominal 5 μg/mL
[17] = room temperature, 24 h, nominal 10 μg/mL

Accuracy Bias [1, 3]: −2.64%
Observed Concentration [1, 3]: 2.43 ± 0.11 µg/mL
Accuracy Bias [1, 4]: −1.65%
Observed Concentration [1, 4]: 4.92 ± 0.14 µg/mL
Accuracy Bias [1, 5]: −0.65%
Observed Concentration [1, 5]: 9.93 ± 0.62 µg/mL
Accuracy Bias [1, 6]: −7.61%
Observed Concentration [1, 6]: 2.31 ± 0.09 µg/mL
Accuracy Bias [1, 7]: −2.90%
Observed Concentration [1, 7]: 4.85 ± 0.18 µg/mL
Accuracy Bias [1, 8]: −3.74%
Observed Concentration [1, 8]: 9.63 ± 0.65 µg/mL
Accuracy Bias [1, 9]: −4.59%
Observed Concentration [1, 9]: 2.39 ± 0.09 µg/mL
Accuracy Bias [1, 10]: −1.48%
Observed Concentration [1, 10]: 4.93 ± 0.11 µg/mL
Accuracy Bias [1, 11]: −0.41%
Observed Concentration [1, 11]: 9.96 ± 0.30 µg/mL
Accuracy Bias [1, 12]: −7.60%
Observed Concentration [1, 12]: 2.31 ± 0.08 µg/mL
Accuracy Bias [1, 13]: −0.86%
Observed Concentration [1, 13]: 4.96 ± 0.14 µg/mL
Accuracy Bias [1, 14]: −1.64%
Observed Concentration [1, 14]: 9.84 ± 0.40 µg/mL
Accuracy Bias [1, 15]: −5.93%
Observed Concentration [1, 15]: 2.35 ± 0.09 µg/mL
Accuracy Bias [1, 16]: −1.73%
Observed Concentration [1, 16]: 4.91 ± 0.17 µg/mL
Accuracy Bias [1, 17]: −4.52%
Observed Concentration [1, 17]: 9.55 ± 0.19 µg/mL
Structure (SMILES): COc1cc2oc(=O)ccc2c(O)c1OC [Tomentin, tomentin]

Accuracy Bias ([2]; 0 h, 2.5 μg/mL): −0.48%
Observed Concentration ([2]; 0 h, 2.5 μg/mL): 2.49 ± 0.12 µg/mL
Accuracy Bias ([2]; 0 h, 5 μg/mL): 0.39%
Observed Concentration ([2]; 0 h, 5 μg/mL): 5.02 ± 0.08 µg/mL
Accuracy Bias ([2]; 0 h, 10 μg/mL): 0.04%
Observed Concentration ([2]; 0 h, 10 μg/mL): 10.00 ± 0.37 µg/mL
Accuracy Bias ([2]; 1 month, 2.5 μg/mL): −7.05%
Observed Concentration ([2]; 1 month, 2.5 μg/mL): 2.32 ± 0.08 µg/mL
Accuracy Bias ([2]; 1 month, 5 μg/mL): −2.27%
Observed Concentration ([2]; 1 month, 5 μg/mL): 4.89 ± 0.17 µg/mL
Accuracy Bias ([2]; 1 month, 10 μg/mL): −0.46%
Observed Concentration ([2]; 1 month, 10 μg/mL): 9.95 ± 0.38 µg/mL
Accuracy Bias ([2]; 24 h, 2.5 μg/mL): −4.63%
Observed Concentration ([2]; 24 h, 2.5 μg/mL): 2.38 ± 0.08 µg/mL
Accuracy Bias ([2]; 24 h, 5 μg/mL): 0.43%
Observed Concentration ([2]; 24 h, 5 μg/mL): 5.02 ± 0.10 µg/mL
Accuracy Bias ([2]; 24 h, 10 μg/mL): −6.61%
Observed Concentration ([2]; 24 h, 10 μg/mL): 9.34 ± 0.27 µg/mL
Structure (SMILES): COc1cc2ccc(=O)oc2cc1O [Scopoletin, scopoletin]
